Measurements as given in the supplement of paper PMC5908809.

Assays:
[1] = system: SNK-6 (IL-2 2.5 ng/mL); assay: drug sensitivity score (DSS) (DSS units); higher = more sensitive; extreme values may be limits of the assay; conditions: 72 h
[2] = system: NKL (IL-2 2.5 ng/mL); assay: as above; conditions: 72 h
[3] = system: IMC-1 (IL-2 20 ng/mL); assay: as above; conditions: 72 h
[4] = system: normal primary NK cells, pool 2 (3 donors) (IL-2 2.5 ng/mL); assay: as above; conditions: 72 h
[5] = system: KHYG-1 (IL-2 2.5 ng/mL); assay: as above; conditions: 72 h
[6] = system: DERL-7 (IL-2 2.5 ng/mL); assay: as above; conditions: 72 h
[7] = system: normal primary NK cells, pool 1 (3 donors), resting (IL-2 0 ng/mL); assay: as above; conditions: 72 h
[8] = system: normal primary NK cells, pool 3 (3 donors) (IL-2 2.5 ng/mL); assay: as above; conditions: 72 h
[9] = system: normal primary NK cells, pool 1 (3 donors) (IL-2 2.5 ng/mL); assay: as above; conditions: 72 h
[10] = system: NK-92 (IL-2 2.5 ng/mL); assay: as above; conditions: 72 h
[11] = system: KAI3 (IL-2 2.5 ng/mL); assay: as above; conditions: 72 h
[12] = system: YT (IL-2 2.5 ng/mL); assay: as above; conditions: 72 h
[13] = system: NK-YS (IL-2 2.5 ng/mL); assay: as above; conditions: 72 h
[14] = system: normal NK cells expanded with K562-aAPC; assay: as above; conditions: 72 h; IL-2 2.5 ng/mL
Procedure: (§1)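 Drug sensitivity and resistance testing on K562-aAPC-expanded normal NK cells: 5 concentrations (10-fold steps over a 10,000-fold range), 72 h at 37 °C, viability by CellTiter-Glo normalised to DMSO and benzethonium chloride controls; DSS from the fitted curve.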

[15] = system: SNK-6 (IL-2 2.5 ng/mL); assay: percent inhibition of viability; higher = more inhibition; conditions: 72 h
[16] = system: NKL (IL-2 2.5 ng/mL); assay: as above; conditions: 72 h
[17] = system: IMC-1 (IL-2 20 ng/mL); assay: as above; conditions: 72 h
[18] = system: normal primary NK cells, pool 2 (3 donors) (IL-2 2.5 ng/mL); assay: as above; conditions: 72 h
[19] = system: KHYG-1 (IL-2 2.5 ng/mL); assay: as above; conditions: 72 h
[20] = system: DERL-7 (IL-2 2.5 ng/mL); assay: as above; conditions: 72 h
[21] = system: normal primary NK cells, pool 1 (3 donors), resting (IL-2 0 ng/mL); assay: as above; conditions: 72 h
[22] = system: normal primary NK cells, pool 3 (3 donors) (IL-2 2.5 ng/mL); assay: as above; conditions: 72 h
[23] = system: normal primary NK cells, pool 1 (3 donors) (IL-2 2.5 ng/mL); assay: as above; conditions: 72 h
[24] = system: NK-92 (IL-2 2.5 ng/mL); assay: as above; conditions: 72 h
[25] = system: KAI3 (IL-2 2.5 ng/mL); assay: as above; conditions: 72 h
[26] = system: YT (IL-2 2.5 ng/mL); assay: as above; conditions: 72 h
[27] = system: NK-YS (IL-2 2.5 ng/mL); assay: as above; conditions: 72 h
[28] = system: normal NK cells expanded with K562-aAPC; assay: as above; conditions: 72 h, IL-2 2.5 ng/mL
Procedure: as §1

Cc1c(Cn2c(C)nc3c(C(=O)O)cc(N4CCOCC4)cc32)cccc1C(F)(F)F (max concentration tested 10000 nM)
Conditions	drug sensitivity score
[1]	0.03
[2]	0.29
[3]	0
[4]	0.23
[5]	3.2
[6]	0.85
[7]	0
[8]	0.01
[9]	0
[10]	3.86
[11]	3.6
[12]	1.67
[13]	0.34
[14]	1.17

percent inhibition of viability [%]
Conditions	1 nM	10 nM	100 nM	1000 nM	10000 nM
[15]	-7.05	-21.9	3.71	-6.21	13.1
[16]	-15.7	-8.49	-1.03	1.51	14.1
[17]	-6.71	-4.25	-1.73	-3.09	11.3
[18]	-11.1	-13.9	-1.99	1.31	13.6
[19]	-2.27	6.11	14.1	8.86	38.2
[20]	3.53	-4.49	1.36	12.1	13.4
[21]	-5.25	4.41	3.22	-19.1	-11.9
[22]	-1.55	0.84	4.49	-0.45	11.4
[23]	-6.21	1.65	-5.56	-4.02	4.77
[24]	-7.97	-2.84	22	7.51	49
[25]	8.08	9.48	9.01	12.5	37.9
[26]	1	6.27	9.12	14.3	16.5
[27]	-2.91	-0.33	7.31	5.6	15.8
[28]	2.47	-0.33	2.82	11.7	17.4

O=c1ncn2nc(Sc3ccc(F)cc3F)ccc2c1-c1c(Cl)cccc1Cl [VX 745] (max concentration tested 10000 nM)
Conditions	drug sensitivity score
[1]	1.52
[2]	7.53
[3]	1.58
[4]	0.67
[5]	1.17
[6]	0.75
[7]	5.57
[8]	0.07
[9]	1.96
[10]	3.48
[11]	6.91
[12]	2.49
[13]	4.52
[14]	0.12

percent inhibition of viability [%]
Conditions	1 nM	10 nM	100 nM	1000 nM	10000 nM
[15]	-5.31	-15.8	-5.14	3.14	26.2
[16]	-15.3	-9.23	3.92	36	58.3
[17]	-8.82	-3.76	-6.12	4.33	24.7
[18]	-5.75	-3.08	5.63	1.25	19.1
[19]	-5.86	-3.96	-4.73	1.64	25
[20]	0.51	2.58	3.17	-1.44	23.6
[21]	13.8	12.2	18.8	9.48	37.9
[22]	-1.25	-5.79	8.52	-4.71	13.8
[23]	1.17	8.88	0.28	10.7	23.3
[24]	-11.3	-20.3	-9.85	11	37.8
[25]	3.09	5.9	15.3	25.4	59.7
[26]	-3.02	-3.06	-2.2	8.23	29.8
[27]	-7.93	-3.47	3.09	15.2	47.7
[28]	-6.57	-6.69	-2.69	10.6	7.59
